We go through two molecules from patent publication EP2862575B1, “APPLICATION OF PICEATANNOL-3'-O-B-D-GLUCOPYRANOSIDE IN PREPARATION OF MEDICAMENTS FOR IMPROVING MICROCIRCULATION BLOCK” (KPC Pharmaceuticals, Inc., priority 2012, dated 2013).

One series relates to human. Nature of the series: maximum tolerated dose for human calculated from animal doses. The format is in vivo. Conditions: calculated on the basis of a body weight of 60 kg from maximum tolerated dose of intramuscular and intravenous injection for animals.
Another series deals with mice. The series can be described thus: acute and long-term toxicity tests in mice. The series is classed as in vivo. Conditions: administrated in a range of safe dose.
A short description of series [1]: solubility test (excess compound shaken to equilibrium, UV at 319 nm). The series is classed as physicochemical. The settings on record: 25±1°C, 72 h. The method, then: A series of solutions of gastrodin or hydroxypropyl-β-cyclodextrin or a mixture of gastrodin and hydroxypropyl-β-cyclodextrin were prepared in volumetric flasks according to the concentrations specified in the tables below. Excessive piceatannol-3'-o-β-d-glucopyranoside was added to the solutions prepared above, which were then shaken at 25±1°C in a thermostatic water bath continuously for 72 h until equilibrium was reached. The solutions were precisely taken out and filtered through a 0.45µm filter. The filtered solutions were diluted to prepare test solutions containing 6µg piceatannol-3'-o-β-d-glucopyranoside per milliliter. Appropriate amount of control sample was precisely weighed out, dissolved in water and diluted to prepare a control solution. The absorbance values of both types of solutions were measured at 319 nm using UV spectrophotometry, from which the solubility can be calculated. The test results of solubility can be seen in the tables below: […]

In the next series the test system is beagle dog. Nature of the series: acute toxicity test, gastric gavage, beagle dog. Conditions: within 24 h.
Another series concerns mouse. Nature of the series: acute toxicity test, gastric gavage, mouse. The settings on record: within 24 h.

`OCc1ccc(O[C@@H]2O[C@H](CO)[C@@H](O)[C@H](O)[C@H]2O)cc1` [Gastrodin, 4-hydroxymethylphenyl-β-D-glucopyranoside hemihydrate]: the “maximum tolerated dose for human” value in the series on human was 33.249 g.
In the case of `OC[C@H]1O[C@@H](Oc2cc(/C=C/c3cc(O)cc(O)c3)ccc2O)[C@H](O)[C@@H](O)[C@@H]1O` [piceatannol-3'-o-β-d-glucopyranoside], the “chromosome aberration or mutagenesis” value in “genotoxicity test” was “no chromosome aberration or mutagenesis observed”. The toxic effect result with mice was “no toxic effect observed”. Moreover, the “Solubility of piceatannol-3'-o-β-d-glucopyranoside” value in series [1] (Gastrodin 45 % + Hydroxypropyl-β-cyclodextrin 3 %) is 186.789 mg/mL; in series [1] (Gastrodin 50 % + Hydroxypropyl-β-cyclodextrin 3 %) it was 188.029 mg/mL; in series [1] (Hydroxypropyl-β-cyclodextrin 45 %), 180.509 mg/mL; in series [1] (Hydroxypropyl-β-cyclodextrin 50 %), 183.10 mg/mL. For the same molecule, the “single maximum dosage given by gastric gavage” value in the series on beagle dog was determined as 5 g/kg.bw; in the series on mouse, 13.33 g/kg.bw.
